Paper PMC12150283, “Synthesis of new Ag(I) and Cd(II) hydrozanomide-based complexes with antibacterial and anticancer properties” (RSC Advances, 2025)
Converted amounts (≈) assume the structure as drawn. Where two headings read alike, the source gives them in different places.

Legend:
[1] = tested on: Escherichia coli ATCC 10530; assay: MIC determination; type: cell-based; settings: Escherichia coli ATCC 10530; 18 h
Procedure: (§1) The antibacterial activity of tested samples was assessed against both gram-positive bacteria (Staphylococcus aureus ATCC 25923, Staphylococcus aureus ATCC 6538, Staphylococcus epidermidis ATCC 12228, Enterococcus faecalis ATCC 29212, Listeria monocytogenes ATCC 19115, Bacillus subtilis ATCC 6633, Bacillus cereus ATCC 10876) and gram-negative bacteria (Escherichia coli ATCC 10530, Salmonella typhimurium ATCC 14028). Antibacterial properties were evaluated using both the dilution method (employing DMSO and 96-well plates) and the diffusion-well method (using Mueller Hinton Agar, Merck, Germany).
(§2) The minimum inhibitory concentrations (MICs) of the tested samples were evaluated against a panel of reference microorganisms obtained from the American Type Culture Collection (ATCC), including Gram-negative bacteria (Escherichia coli ATCC 10530, Salmonella typhimurium ATCC 14028), and Gram-positive bacteria (Staphylococcus aureus ATCC 25923, Staphylococcus aureus ATCC 6538, Staphylococcus epidermidis ATCC 12228, Enterococcus faecalis ATCC 29212, Listeria monocytogenes ATCC 19115, Bacillus subtilis ATCC 6633), and one strain (Bacillus cereus ŁOCK 0807) obtained from the Pure Culture of Industrial Microorganisms of the Institute of Fermentation Technology and Microbiology ŁOCK 105 (Łódź, Poland).
(§3) The microorganism cultures with a density of 1.5 × 10^8 CFU mL^−1 (corresponding to a McFarland standard of 0.5) were plated on Mueller–Hinton Agar (Merck, Germany) following the procedures recommended by the European Committee on Antimicrobial Susceptibility Testing (EUCAST).[47] Wells measuring 10 mm in diameter were cut into the medium. The tested compounds were dissolved in a DMSO solution, which was recommended due to their chemical structures. Subsequently, 100 μL of prepared solutions containing the tested compounds at concentrations ranging from x μg mL^−1 to x μg mL^−1 were added to each well. The plates were incubated at 30 °C (for Bacillus subtilis and Bacillus cereus) or 37 °C (for other bacteria) for 18 hours. After incubation, the minimum inhibitory concentration (MIC value) was determined (the lowest concentration of the tested compounds that prevents bacterial growth) and expressed in μg mL^−1. The experiment was conducted in three independent replicates. Ciprofloxacin (Sigma Aldrich, Saint Louis, MO, USA) was used as a reference antimicrobial agent against Gram-negative bacteria, while vancomycin (Sigma Aldrich, Saint Louis, MO, USA) was used as a reference antimicrobial agent against Gram-positive bacteria.

[2] = tested on: Salmonella typhimurium ATCC 14028; assay: MIC determination; type: cell-based; settings: 18 h
Procedure: as §1, §2, §3

[3] = tested on: glioblastoma LN-229 cells; assay: MTT cell viability assay; type: cell-based, human; settings: 48 hours of incubation
Procedure: (§4) The glioblastoma cell lines LN-229 and U87 and the reference human normal skin fibroblast BJ were obtained from the American Type Culture Collection (ATCC). Cells were grown as monolayers when cultured in cell culture flasks and cultured in Dulbecco's Modified Eagle Medium (DMEM) – LN-229 and Eagle's Minimum Essential Medium (EMEM) – U87 and BJ, supplemented with 10% (v/v) fetal bovine serum, penicillin (10 000 U mL^−1), streptomycin (10 mg mL^−1) and amphotericin B (250 μg mL^−1). The cells were incubated at 37 °C, 5% CO2 atmosphere. The cells were maintained in the logarithmic growth phase by regular passage at 80% confluence.
(§5) The cytotoxicity of the tested compounds was evaluated against both human glioblastoma LN-229 and U-87 as well as normal BJ cell lines. The cells were plated in 96-well culture plates (2 × 10^4 well) and after 24 h incubation the cells were treated with the tested compounds in the concentration range 1–50 μM. The cells were cultured for the next 48 h. The cytotoxicity of the compounds was evaluated using the MTT colorimetric method as previously described.[28,29] IC50 values were determined using the AAT Bioquest IC50 calculator as the concentration of compounds capable of reducing cell viability by 50%. The experiment was performed in triplicate for each concentration. To examine the cytotoxic effect of compounds on cell morphology, cells were examined under an inverted phase contrast microscope Nikon Eclipse Ti with NIS Element software (Tokyo, Japan).

[4] = tested on: glioblastoma U87 cells; assay: MTT cell viability assay; type: cell-based, human; settings: 48 hours of incubation
Procedure: as §4, §5

[5] = tested on: normal skin fibroblast BJ cells; assay: MTT cell viability assay; type: cell-based, human; settings: BJ normal fibroblasts, 48 hours of incubation
Procedure: as §4, §5

[6] = tested on: Bacillus cereus ŁOCK 0807; assay: MIC determination; type: cell-based; settings: 18 h
Procedure: as §1, §2, §3

[7] = tested on: Bacillus subtilis ATCC 6633; assay: MIC determination; type: cell-based
Procedure: as §1, §2, §3

[8] = tested on: Enterococcus faecalis ATCC 29212; assay: MIC determination; type: cell-based; settings: E. faecalis ATCC 29212, 18 h
Procedure: as §1, §2, §3

[9] = tested on: Listeria monocytogenes ATCC 19115; assay: MIC determination; type: cell-based; settings: Listeria monocytogenes ATCC 19115, 18 h
Procedure: as §1, §2, §3

[10] = tested on: Staphylococcus aureus ATCC 25923; assay: MIC determination; type: cell-based; settings: S. aureus ATCC 25923, 18 h
Procedure: as §1, §2, §3

[11] = tested on: Staphylococcus aureus ATCC 6538; assay: MIC determination; type: cell-based; settings: S. aureus ATCC 6538, 18 h
Procedure: as §1, §2, §3

[12] = tested on: Staphylococcus epidermidis ATCC 12228; assay: MIC determination; type: cell-based; settings: S. epidermidis ATCC 12228, 18 h
Procedure: as §1, §2, §3

[13] = tested on: S. aureus ATCC 25923; assay: Diffusion-well method, inhibition zones; type: cell-based, Staphylococcus aureus; settings: 500 µg/mL, wells 10 mm
Procedure: as §1
(§6) 24 hour bacterial cultures with a density of 1–2 × 10^8 CFU mL^−1 were plated (0.1 mL) on Mueller–Hinton Agar (Merck, Germany). Subsequently, wells with a diameter of 10 mm were cut out from and filled with 100 μL of the tested compound at a concentration of 10–500 μg mL^−1 (diluted in DMSO). After an 18-hour incubation at either 30 °C (for Bacillus ssp.) or 37 °C (for other tested microorganisms), the inhibition zones around the wells were measured, and the results were expressed in millimetres (Table S9 ^†).

[14] = tested on: S. aureus ATCC 6538; assay: Diffusion-well method, inhibition zones; type: cell-based, Staphylococcus aureus; settings: 500 µg/mL, wells 10 mm
Procedure: as §1, §6

[15] = tested on: E. faecalis ATCC 29212; assay: Diffusion-well method, inhibition zones; type: cell-based, Enterococcus faecalis; settings: 500 µg/mL, wells 10 mm
Procedure: as §1, §6

[16] = tested on: B. cereus ŁOCK 0807; assay: Diffusion-well method, inhibition zones; type: cell-based, Bacillus cereus; settings: 500 µg/mL, wells 10 mm
[17] = tested on: L. monocytogenes ATCC 19115; assay: Diffusion-well method, inhibition zones; type: cell-based, Listeria monocytogenes; settings: 500 µg/mL, wells 10 mm
Procedure: as §1, §6

[18] = tested on: B. subtilis ATCC 6633; assay: Diffusion-well method, inhibition zones; type: cell-based, Bacillus subtilis; settings: 500 µg/mL, wells 10 mm
Procedure: as §1, §6

[19] = tested on: E. coli ATCC 10530; assay: Diffusion-well method, inhibition zones; type: cell-based, Escherichia coli; settings: 500 µg/mL, wells 10 mm
Procedure: as §1, §6

[20] = Time-dependent UV-vis solution stability in DMSO; type: physicochemical; settings: 0 min to 48 h, room temperature
Excerpt: The stability of metal complexes is a crucial property that provides insight into their interactions with biological molecules, as it directly impacts their reactivity, bioavailability, and effectiveness in therapeutic applications. Additionally, the solubility of these complexes in dimethyl sulfoxide (DMSO) is of considerable importance, as solubility data are essential for optimizing storage conditions and ensuring compatibility with biological assays.[39] DMSO, a widely used solvent in drug discovery, serves as a medium that supports the stability and bioavailability of complexes under assay conditions, which is critical for maintaining the integrity of analytical protocols and enabling accurate assessments of biological activity. For the obtained complexes, the time-dependent UV-vis investigations in DMSO (Fig. 5 and S9 ^†) were carried out from 0 min to 48 h (0 min, 30 min, 1 h, 2 h, 3 h, 24 h, 48 h).
The sample solutions (50 μL (1.0 × 10^−3 M)) of the complexes were prepared in DMSO (Sigma Aldrich, ≥99.9%). The absorption spectra of the complexes were measured with increasing time (0 min, 30 min, 60 min, 2 h, 3 h, 24 h, 48 h) at room temperature. All measurements were performed on the Shimadzu UV-2401PC.

Row | Compound | MIC [1] [µg/mL] | IC50 [3] [µM] | IC50 [4] [µM] | IC50 [5] [µM] | MIC ([6]; Bacillus cereus ŁOCK 0807) [µg/mL] | MIC ([7]; 18 h) [µg/mL] | MIC [8] [µg/mL] | MIC [9] [µg/mL] | MIC ([2]; S. typhimurium ATCC 14028) [µg/mL] | MIC [10] [µg/mL] | MIC [11] [µg/mL] | MIC [12] [µg/mL] | Inhibition zone [13] [mm] | Inhibition zone [14] [mm] | Inhibition zone [19] [mm] | hypochromic effect [20] [%] | also measured
1 | O=C(O)c1cn(C2CC2)c2cc(N3CCNCC3)c(F)cc2c1=O [Ciprofloxacin, reference compound] | 1 (≈ 3.02 µM) |  |  |  |  |  |  |  |  |  |  |  |  |  |  |  | MIC ([2]; Salmonella enterica): 1 µg/mL (≈ 3.02 µM)
2 | N.N.[Cl][Pt][Cl] [Cisplatin, reference compound] |  | 29.09 ± 0.23 | 39.6 ± 1.13 | > 50 |  |  |  |  |  |  |  |  |  |  |  |  | 
3 | NC(=NN=Cc1ccccc1)c1cc(Cl)ccn1.O=[N+]([O-])[O-].[Ag+] [Complex 3, AgL3NO3] | 10 | > 50 | 32 ± 7.08 | > 50 | 50 | 10 | 50 | 10 | 500 | 100 | 50 | 250 | 15 | 15 | 20 | 2.31 | Inhibition zone [15]: 13 mm; Inhibition zone [16]: 18 mm; Inhibition zone [17]: 19 mm; Inhibition zone [18]: 17 mm
4 | NC(=NN=Cc1ccc([N+](=O)[O-])cc1)c1cccc(Cl)n1.NC(=NN=Cc1ccc([N+](=O)[O-])cc1)c1cccc(Cl)n1.[Cd+2].[Cl-].[Cl-] [Complex 7, Cd (L2)2Cl2] | 500 | > 50 | > 50 | 41.7 ± 4.18 | > 500 | > 500 | > 500 | > 500 | > 500 | 100 | 500 | > 500 | 15 | 13 | 12 | 27.7 | shift of peak maxima [20]: 15 nm
5 | NC(=NN=Cc1ccccc1)c1cc(Cl)ccn1.[Cd+2].[Cl-].[Cl-] [Complex 8, CdL3Cl2] | 10 | > 50 | 10.9 ± 3.8 | 25.8 ± 4.48 | > 500 | > 500 | > 500 | > 500 | > 500 | 100 | 500 | > 500 | 15 |  | 20 | 36.3 | shift of peak maxima [20]: 4 nm
6 | NC(=NN=Cc1ccc([N+](=O)[O-])cc1)c1cccc(N2CCCC2)n1.[Cd+2].[Cl-].[Cl-] [Complex 9, CdL4Cl2] | 10 | 45.3 ± 2.18 | > 50 | 1.05 ± 0.32 | 250 | > 500 | 10 | 500 | > 500 | 10 | 250 | > 500 | 16 | 13 | 20 |  | Inhibition zone [15]: 14 mm; Inhibition zone [16]: 13 mm; Inhibition zone [17]: 12 mm
7 | N/C(=N\N=C\c1ccc([N+](=O)[O-])cc1)c1cccc(Cl)n1 [Complex L2, 6-chloro-N′-(4-nitrobenzylidene) picolinohydrazonamide] |  |  |  |  |  |  |  |  |  |  |  |  |  |  |  |  | IC50 ([3]; Homo sapiens): 40.8 ± 6.12 µM; IC50 ([4]; Homo sapiens, U-87 MG): > 50 µM; IC50 ([5]; Homo sapiens): 35.5 ± 4.33 µM
8 | NC(=NN=Cc1ccccc1)c1cc(Cl)ccn1 [Complex L3, N′-(benzylidene)-4-chloropicolinohydrazonamide] |  |  |  |  |  |  |  |  |  |  |  |  |  |  |  |  | IC50 ([3]; Homo sapiens): > 50 µM; IC50 ([4]; Homo sapiens, U-87 MG): > 50 µM; IC50 ([5]; Homo sapiens): > 50 µM
9 | CN[C@H](CC(C)C)C(=O)N[C@H]1C(=O)N[C@@H](CC(N)=O)C(=O)N[C@H]2C(=O)N[C@H]3C(=O)N[C@H](C(=O)N[C@H](C(=O)O)c4cc(O)cc(O)c4-c4cc3ccc4O)[C@H](O)c3ccc(c(Cl)c3)Oc3cc2cc(c3O[C@@H]2O[C@H](CO)[C@@H](O)[C@H](O)[C@H]2O[C@H]2C[C@](C)(N)[C@H](O)[C@H](C)O2)Oc2ccc(cc2Cl)[C@H]1O [Vancomycin, vancomycin, reference compound] |  |  |  |  |  |  |  |  |  |  |  |  |  |  |  |  | MIC ([6]; Bacillus cereus): 1 µg/mL (≈ 0.69 µM); MIC ([7]; ATCC6633, 18 h, read-out: MIC): 1 µg/mL (≈ 0.69 µM); MIC ([8]; Enterococcus faecalis, ATCC29212, read-out: MIC): 1 µg/mL (≈ 0.69 µM); MIC ([9]; ATCC19115, read-out: MIC): 2 µg/mL (≈ 1.38 µM); MIC ([10]; Staphylococcus aureus, ATCC25923, read-out: MIC): 1 µg/mL (≈ 0.69 µM); MIC ([11]; Staphylococcus aureus, ATCC6538, read-out: MIC): 1 µg/mL (≈ 0.69 µM); MIC ([12]; Staphylococcus epidermidis, ATCC12228, read-out: MIC): 1 µg/mL (≈ 0.69 µM)
